Results on 1 compound are retold here after article PMC11233931, “Remodeling tumor‐associated macrophage for anti‐cancer effects by rational design of irreversible inhibition of mitogen‐activated protein kinase‐activated protein kinase 2” (MedComm, 2024).

What all share (assay): Eurofins kinase selectivity profile against 380 other human recombinant kinases (Table S2)
Holding throughout (format): biochemical

Test [1] addresses T1, 380 human recombinant protein kinases (Homo sapiens, UniProt Q9NWZ3).
T1 construct: purchased Eurofins (Celle Lévescault)
T1 sequence (Q9NWZ3 1-460): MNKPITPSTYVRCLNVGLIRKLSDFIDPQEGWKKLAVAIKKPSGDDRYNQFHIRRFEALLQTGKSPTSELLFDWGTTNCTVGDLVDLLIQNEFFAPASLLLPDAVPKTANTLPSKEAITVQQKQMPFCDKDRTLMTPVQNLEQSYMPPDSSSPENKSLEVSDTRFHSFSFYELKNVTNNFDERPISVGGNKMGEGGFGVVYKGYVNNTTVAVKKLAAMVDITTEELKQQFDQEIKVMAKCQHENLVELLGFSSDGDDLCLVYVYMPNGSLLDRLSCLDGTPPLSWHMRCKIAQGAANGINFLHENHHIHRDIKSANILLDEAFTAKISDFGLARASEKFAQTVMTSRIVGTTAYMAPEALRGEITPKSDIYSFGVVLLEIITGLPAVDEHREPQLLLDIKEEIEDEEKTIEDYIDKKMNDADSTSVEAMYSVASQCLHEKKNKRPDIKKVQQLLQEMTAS
The note with it: IRAK4(h), read-out: Inhibition rate. An outline of the steps: (§1)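 Values come from a contract kinase-profiling service that tested the compound at multiple concentrations across 380 recombinant human kinases, as an off-target check against the MK2 activity.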

In test [2] the target is T2, 380 human recombinant protein kinases (Homo sapiens, UniProt P15056, V600E).
T2 construct: purchased Eurofins (Celle Lévescault)
The note with it: B-Raf(V599E)(h), read-out: Inhibition rate. An outline of the steps: as §1

The target in test [3] is T3, 380 human recombinant protein kinases (Homo sapiens, UniProt Q96RR4).
T3 construct: purchased Eurofins (Celle Lévescault)
The conditions noted are these: CaMKK2(h), read-out: Inhibition rate. The method, boiled down:
as §1

For test [4], the target named is T4, 380 human recombinant protein kinases (Homo sapiens, UniProt Q9UEW8).
T4 construct: purchased Eurofins (Celle Lévescault)
The note with it: STK39(h), read-out: Inhibition rate (%). An outline of the steps: as §1

In test [5] the target is T5, 380 human recombinant protein kinases (Homo sapiens, UniProt Q9NRH2).
T5 construct: purchased Eurofins (Celle Lévescault)
T5 sequence (Q9NRH2 1-765): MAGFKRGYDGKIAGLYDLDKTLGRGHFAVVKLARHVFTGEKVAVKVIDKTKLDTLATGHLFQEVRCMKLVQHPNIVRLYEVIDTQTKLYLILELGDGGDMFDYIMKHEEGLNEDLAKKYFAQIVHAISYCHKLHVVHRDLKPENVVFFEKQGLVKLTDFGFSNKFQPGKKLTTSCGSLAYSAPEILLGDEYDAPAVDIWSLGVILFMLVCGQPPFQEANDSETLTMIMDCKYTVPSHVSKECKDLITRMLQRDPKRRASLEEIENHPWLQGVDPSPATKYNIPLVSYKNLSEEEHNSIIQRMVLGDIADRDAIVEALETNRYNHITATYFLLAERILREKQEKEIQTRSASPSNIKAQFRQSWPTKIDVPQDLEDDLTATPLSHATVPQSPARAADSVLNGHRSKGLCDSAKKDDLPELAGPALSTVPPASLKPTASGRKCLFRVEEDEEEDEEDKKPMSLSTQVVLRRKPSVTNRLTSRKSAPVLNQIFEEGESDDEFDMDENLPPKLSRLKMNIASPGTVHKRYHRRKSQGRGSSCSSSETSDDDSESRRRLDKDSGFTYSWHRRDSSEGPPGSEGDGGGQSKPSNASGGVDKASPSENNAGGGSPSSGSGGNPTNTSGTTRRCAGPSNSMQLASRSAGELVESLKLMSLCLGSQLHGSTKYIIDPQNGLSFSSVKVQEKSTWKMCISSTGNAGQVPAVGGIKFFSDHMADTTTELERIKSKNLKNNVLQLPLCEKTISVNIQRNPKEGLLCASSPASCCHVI
The note with it: SNRK(h), read-out: Inhibition rate (%). The method, boiled down: as §1

The target of test [6] is T6, 380 human recombinant protein kinases (Homo sapiens, UniProt P08631).
T6 construct: purchased Eurofins (Celle Lévescault)
The conditions noted are these: Hck(h), read-out: Inhibition rate. The method, boiled down: as §1

Test [7] has as its target T7, 380 human recombinant protein kinases (Homo sapiens, UniProt P53355).
T7 construct: purchased Eurofins (Celle Lévescault)
The note with it: DAPK1(h), read-out: Inhibition rate. An outline of the steps: as §1

T6 sequence (P08631 whole entry): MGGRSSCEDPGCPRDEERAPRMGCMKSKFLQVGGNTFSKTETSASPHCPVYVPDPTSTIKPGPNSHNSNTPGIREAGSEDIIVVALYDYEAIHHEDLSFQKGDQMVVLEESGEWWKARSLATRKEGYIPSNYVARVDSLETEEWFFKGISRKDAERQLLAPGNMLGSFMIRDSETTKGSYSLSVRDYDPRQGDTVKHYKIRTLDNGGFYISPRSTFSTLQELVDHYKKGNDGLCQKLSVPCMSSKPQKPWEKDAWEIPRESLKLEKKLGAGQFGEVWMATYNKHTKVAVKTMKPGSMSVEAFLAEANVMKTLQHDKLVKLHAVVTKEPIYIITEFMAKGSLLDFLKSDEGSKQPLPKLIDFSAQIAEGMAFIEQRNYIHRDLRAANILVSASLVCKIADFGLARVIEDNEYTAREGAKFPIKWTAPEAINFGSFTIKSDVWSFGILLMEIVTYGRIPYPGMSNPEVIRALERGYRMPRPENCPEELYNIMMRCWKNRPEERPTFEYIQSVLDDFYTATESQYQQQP
T7 sequence (P53355 whole entry): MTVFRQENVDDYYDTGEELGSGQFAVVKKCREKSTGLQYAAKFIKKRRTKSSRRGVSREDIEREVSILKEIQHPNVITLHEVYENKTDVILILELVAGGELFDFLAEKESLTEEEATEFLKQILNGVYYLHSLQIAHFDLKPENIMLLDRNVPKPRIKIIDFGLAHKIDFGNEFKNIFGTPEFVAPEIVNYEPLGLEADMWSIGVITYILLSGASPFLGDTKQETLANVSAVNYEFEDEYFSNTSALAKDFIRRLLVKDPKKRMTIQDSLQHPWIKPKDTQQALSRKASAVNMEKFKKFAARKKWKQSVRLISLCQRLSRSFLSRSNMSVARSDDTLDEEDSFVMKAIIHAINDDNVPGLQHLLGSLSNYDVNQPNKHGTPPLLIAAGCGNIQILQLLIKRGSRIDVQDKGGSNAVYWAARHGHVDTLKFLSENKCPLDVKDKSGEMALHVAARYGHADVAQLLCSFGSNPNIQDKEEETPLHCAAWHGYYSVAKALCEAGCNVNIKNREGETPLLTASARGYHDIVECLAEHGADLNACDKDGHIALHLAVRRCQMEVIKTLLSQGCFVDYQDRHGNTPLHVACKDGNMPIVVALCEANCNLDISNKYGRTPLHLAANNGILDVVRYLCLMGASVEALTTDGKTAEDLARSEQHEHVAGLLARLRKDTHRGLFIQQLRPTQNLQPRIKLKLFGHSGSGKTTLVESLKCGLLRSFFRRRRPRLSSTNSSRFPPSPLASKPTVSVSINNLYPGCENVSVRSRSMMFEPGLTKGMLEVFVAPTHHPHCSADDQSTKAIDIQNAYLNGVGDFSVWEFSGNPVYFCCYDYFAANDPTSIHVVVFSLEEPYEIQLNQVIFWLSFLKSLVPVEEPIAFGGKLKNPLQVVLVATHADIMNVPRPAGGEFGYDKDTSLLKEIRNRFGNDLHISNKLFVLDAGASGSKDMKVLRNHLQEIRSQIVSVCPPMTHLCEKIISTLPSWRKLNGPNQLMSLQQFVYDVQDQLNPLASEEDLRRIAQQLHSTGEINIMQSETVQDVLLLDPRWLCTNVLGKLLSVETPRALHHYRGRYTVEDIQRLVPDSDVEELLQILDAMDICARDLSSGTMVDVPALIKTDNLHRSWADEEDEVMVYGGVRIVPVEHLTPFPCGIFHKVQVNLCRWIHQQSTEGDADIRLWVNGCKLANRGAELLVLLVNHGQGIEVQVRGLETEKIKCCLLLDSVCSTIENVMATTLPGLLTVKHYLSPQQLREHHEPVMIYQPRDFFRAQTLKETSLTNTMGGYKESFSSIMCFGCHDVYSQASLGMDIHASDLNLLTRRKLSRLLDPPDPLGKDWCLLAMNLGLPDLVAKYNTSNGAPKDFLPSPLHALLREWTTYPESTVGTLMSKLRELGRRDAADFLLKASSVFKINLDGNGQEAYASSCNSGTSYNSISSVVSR
T3 sequence (Q96RR4 whole entry): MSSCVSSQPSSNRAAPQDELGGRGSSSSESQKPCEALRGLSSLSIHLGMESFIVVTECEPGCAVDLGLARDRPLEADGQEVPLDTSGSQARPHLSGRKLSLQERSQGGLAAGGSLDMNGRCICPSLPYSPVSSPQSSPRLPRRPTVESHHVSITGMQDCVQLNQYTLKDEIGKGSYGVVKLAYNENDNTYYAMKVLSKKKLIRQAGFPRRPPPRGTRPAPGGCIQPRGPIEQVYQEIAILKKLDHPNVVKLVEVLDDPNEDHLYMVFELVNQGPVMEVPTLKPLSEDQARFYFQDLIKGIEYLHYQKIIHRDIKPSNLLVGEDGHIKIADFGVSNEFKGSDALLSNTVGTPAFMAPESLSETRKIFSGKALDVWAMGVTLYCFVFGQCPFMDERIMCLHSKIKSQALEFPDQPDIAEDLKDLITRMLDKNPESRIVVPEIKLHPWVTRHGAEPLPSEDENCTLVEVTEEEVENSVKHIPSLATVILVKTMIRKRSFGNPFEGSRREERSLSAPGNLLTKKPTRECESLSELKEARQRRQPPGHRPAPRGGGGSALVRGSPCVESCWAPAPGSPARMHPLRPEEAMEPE
T2 sequence (P15056 whole entry V600E): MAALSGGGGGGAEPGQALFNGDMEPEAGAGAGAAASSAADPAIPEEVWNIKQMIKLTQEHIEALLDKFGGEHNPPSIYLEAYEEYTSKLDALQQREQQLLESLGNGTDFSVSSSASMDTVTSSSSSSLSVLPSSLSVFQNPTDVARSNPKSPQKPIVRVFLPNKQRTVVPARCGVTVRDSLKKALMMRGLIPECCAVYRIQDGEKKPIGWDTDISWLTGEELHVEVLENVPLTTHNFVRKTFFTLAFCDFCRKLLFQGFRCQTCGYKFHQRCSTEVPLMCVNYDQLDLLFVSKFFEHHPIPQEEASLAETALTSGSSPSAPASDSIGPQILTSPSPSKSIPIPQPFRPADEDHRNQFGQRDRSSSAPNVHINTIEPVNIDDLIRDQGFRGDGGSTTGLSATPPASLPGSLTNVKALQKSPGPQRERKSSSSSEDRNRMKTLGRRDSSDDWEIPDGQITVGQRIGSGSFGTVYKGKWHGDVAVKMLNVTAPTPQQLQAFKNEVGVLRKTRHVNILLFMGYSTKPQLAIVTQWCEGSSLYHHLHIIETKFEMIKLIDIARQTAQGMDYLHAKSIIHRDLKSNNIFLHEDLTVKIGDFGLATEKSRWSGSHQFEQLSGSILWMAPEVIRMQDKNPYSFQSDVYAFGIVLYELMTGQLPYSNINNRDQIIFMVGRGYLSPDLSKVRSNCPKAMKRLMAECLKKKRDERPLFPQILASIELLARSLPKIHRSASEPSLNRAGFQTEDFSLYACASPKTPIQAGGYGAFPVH

`C=CC(=O)Nc1cc(-c2cc(-c3cc4c([nH]3)CCNC4=O)ccn2)ccc1OC(F)(F)F` [compound 11]: the inhibition – broadly, the relative decrease from the control value, in per cent – at 0.01 µM in test [1] (10 nM) was -4%; in test [2] (10 nM), -6%; in test [3] (10 nM) it was -9%; in test [4] (10 nM), -10%; in test [5] (10 nM), 4%; in test [6] (10 nM), -3%. Also, in test [7] (10 nM), the inhibition at 0.01 µM was 2%. Moreover, the inhibition at 0.1 µM is -9% in test [1] (100 nM); -14% in test [2] (100 nM); -1% in test [3] (100 nM); -4% in test [4] (100 nM); 4% in test [5] (100 nM); -7% in test [6] (100 nM). Besides, the inhibition at 0.1 µM in test [7] (100 nM) is 5%. For the same compound, the inhibition at 1 µM in test [1] (1000 nM) is -2%; in test [2] (1000 nM) it was -2%; in test [3] (1000 nM) it was 38%; in test [4] (1000 nM), 5%; in test [5] (1000 nM), 9%; in test [6] (1000 nM) it was 4%. Moreover, the inhibition at 1 µM in test [7] (1000 nM) was found to be 12%.
